Reference: PMC6470533, “Structure–Activity Study, Characterization, and Mechanism of Action of an Antimicrobial Peptoid D2 and Its D- and L-Peptide Analogues” (Molecules, 2019)
In brackets after ≈: the same amount, converted by molar mass. Non-standard residues stand in square brackets, D forms with d. Residues, ends and D or L forms follow the SMILES beside them. N(1-naphthylmethyl)Gly = O=C(O)CNCc1cccc2ccccc12; d1Nal = N[C@H](Cc1cccc2ccccc12)C(=O)O; N(4-MeBn)Gly = Cc1ccc(CNCC(=O)O)cc1; Gly(N-CH2CH2OH) = O=C(O)CNCCO; dNle = CCCC[C@@H](N)C(=O)O; NBuGly = CCCCNCC(=O)O; Nlys = NCCCCNCC(=O)O; Sar = CNCC(=O)O

How the values were obtained:
[1] = system: Methicillin sensitive Staphylococcus pseudintermedius (26916); type: cell-based; conditions: 18 h
[2] = system: Methicillin resistant Staphylococcus pseudintermedius, (C22963); type: cell-based; conditions: 18 h
[3] = system: Staphylococcus aureus (ATCC 29213); type: cell-based; conditions: ATCC 29213, 18 h
[4] = system: Pseudomonas aeruginosa (ATCC 27853); type: cell-based; conditions: ATCC 27853, 18 h
Protocol: To explore the antimicrobial activity of the library of peptides and peptidomimetics, they were tested against Acinetobacter baumannii, Corynebacterium auriscanis, Escherichia coli, Enterococcus faecalis, Enterococcus faecium, Klebsiella pneumonia, Proteus mirabilis, and Pseudomonas aeruginosa. Bacteria grown on agar plates for 18 h at 37 °C were diluted to ~1 × 10^8 CFU/mL in Mueller–Hinton broth (MHB). Two-fold serial dilutions of peptides and peptidomimetics in MHB II were inoculated with bacteria to achieve a final concentration of 5 × 10^5 CFU/mL in polypropylene 96 U-well microtiter plates (Almeco, Esbjerg, Denmark), followed by incubation at 37 °C in ambient air for 18 h. The MIC values were determined as the lowest concentration showing no visible bacterial growth. Experiments were performed twice (in technical triplicates) on two different days.

red blood cell (RBC) = conditions: 0.5% RBC suspension in PBS, 1 h, 37 °C, read at 414 nm, normalized to mellitin and PBS, triplicates
Protocol: Briefly, 75 µL of peptide in PBS was mixed with 75 µL of a 0.5% red blood cell (RBC) suspension in PBS, and incubated for 1 h at 37 °C. The hemoglobin release was then measured at 414 nm and normalized, using mellitin as positive control and PBS as negative control. Experiments were done in triplicates.

SMILES	MIC MSSP [1]	MIC MRSP [2]	MIC SA [3]	MIC PA [4]	HA, percentage of hemolysis at 150 µM (red blood cell (RBC))
CCCCN(CC(N)=O)C(=O)CN(CCCCN)C(=O)CN(Cc1cccc2ccccc12)C(=O)CNC(=O)CN(Cc1ccc(C)cc1)C(=O)CN(Cc1cccc2ccccc12)C(=O)CN(CCCCN)C(=O)CNCCCCN [compound 5] (H-[Nlys][Nlys][N(1-naphthylmethyl)Gly][N(4-MeBn)Gly]G[N(1-naphthylmethyl)Gly][Nlys][NBuGly]-NH2; N-terminus assumed)	4 µg/mL (≈ 3.55 µM)	4 µg/mL (≈ 3.55 µM)	32 µg/mL (≈ 28.4 µM)	16 µg/mL (≈ 14.2 µM)	25%
CCCCN(CC(N)=O)C(=O)CN(CCCCN)C(=O)CNC(=O)CN(CCCCN)C(=O)CN(Cc1ccc(C)cc1)C(=O)CN(Cc1cccc2ccccc12)C(=O)CN(CCCCN)C(=O)CNCCCCN [compound 6] (H-[Nlys][Nlys][N(1-naphthylmethyl)Gly][N(4-MeBn)Gly][Nlys]G[Nlys][NBuGly]-NH2; N-terminus assumed)	>64 µg/mL	>64 µg/mL	>64 µg/mL	>64 µg/mL	6%
CCCCN(CC(N)=O)C(=O)CNC(=O)CN(Cc1cccc2ccccc12)C(=O)CN(CCCCN)C(=O)CN(Cc1ccc(C)cc1)C(=O)CN(Cc1cccc2ccccc12)C(=O)CN(CCCCN)C(=O)CNCCCCN [compound 7] (H-[Nlys][Nlys][N(1-naphthylmethyl)Gly][N(4-MeBn)Gly][Nlys][N(1-naphthylmethyl)Gly]G[NBuGly]-NH2; N-terminus assumed)	8 µg/mL (≈ 7.1 µM)	4 µg/mL (≈ 3.55 µM)	16 µg/mL (≈ 14.2 µM)	16 µg/mL (≈ 14.2 µM)	85%
Cc1ccc(CN(CC(=O)N(CCCCN)CC(=O)N(CC(=O)N(CCCCN)CC(=O)NCC(N)=O)Cc2cccc3ccccc23)C(=O)CN(Cc2cccc3ccccc23)C(=O)CN(CCCCN)C(=O)CNCCCCN)cc1 [compound 8] (H-[Nlys][Nlys][N(1-naphthylmethyl)Gly][N(4-MeBn)Gly][Nlys][N(1-naphthylmethyl)Gly][Nlys]G-NH2; N-terminus assumed)	8 µg/mL (≈ 7 µM)	8 µg/mL (≈ 7 µM)	32 µg/mL (≈ 28 µM)	32 to 64 µg/mL	49%
CCCCN(CC(N)=O)C(=O)CN(CCCCN)C(=O)CN(Cc1cccc2ccccc12)C(=O)CN(C)C(=O)CN(Cc1ccc(C)cc1)C(=O)CN(Cc1cccc2ccccc12)C(=O)CN(CCCCN)C(=O)CNCCCCN [compound 9] (H-[Nlys][Nlys][N(1-naphthylmethyl)Gly][N(4-MeBn)Gly][Sar][N(1-naphthylmethyl)Gly][Nlys][NBuGly]-NH2; N-terminus assumed)	4 µg/mL (≈ 3.5 µM)	4 µg/mL (≈ 3.5 µM)	16 µg/mL (≈ 14 µM)	32 µg/mL (≈ 28 µM)	16%
CCCCN(CC(N)=O)C(=O)CN(CCCCN)C(=O)CN(Cc1cccc2ccccc12)C(=O)CN(Cc1ccc(C)cc1)C(=O)CN(Cc1ccc(C)cc1)C(=O)CN(Cc1cccc2ccccc12)C(=O)CN(CCCCN)C(=O)CNCCCCN [compound 10] (H-[Nlys][Nlys][N(1-naphthylmethyl)Gly][N(4-MeBn)Gly][N(4-MeBn)Gly][N(1-naphthylmethyl)Gly][Nlys][NBuGly]-NH2; N-terminus assumed)	8 µg/mL (≈ 6.5 µM)	8 µg/mL (≈ 6.5 µM)	8 µg/mL (≈ 6.5 µM)	16 µg/mL (≈ 13 µM)	69%
CCCCN(CC(N)=O)C(=O)CN(CCCCN)C(=O)CN(Cc1cccc2ccccc12)C(=O)CN(Cc1cccc2ccccc12)C(=O)CN(Cc1ccc(C)cc1)C(=O)CN(Cc1cccc2ccccc12)C(=O)CN(CCCCN)C(=O)CNCCCCN [compound 11] (H-[Nlys][Nlys][N(1-naphthylmethyl)Gly][N(4-MeBn)Gly][N(1-naphthylmethyl)Gly][N(1-naphthylmethyl)Gly][Nlys][NBuGly]-NH2; N-terminus assumed)	8 µg/mL (≈ 6.31 µM)	8 µg/mL (≈ 6.31 µM)	8 µg/mL (≈ 6.31 µM)	16 µg/mL (≈ 12.6 µM)	87%
CCCCN(CC(N)=O)C(=O)CN(CCCCN)C(=O)CN(Cc1cccc2ccccc12)C(=O)CN(CCO)C(=O)CN(Cc1ccc(C)cc1)C(=O)CN(Cc1cccc2ccccc12)C(=O)CN(CCCCN)C(=O)CNCCCCN [compound 12] (H-[Nlys][Nlys][N(1-naphthylmethyl)Gly][N(4-MeBn)Gly][Gly(N-CH2CH2OH)][N(1-naphthylmethyl)Gly][Nlys][NBuGly]-NH2; N-terminus assumed)	8 µg/mL (≈ 6.83 µM)	8 µg/mL (≈ 6.83 µM)	32 µg/mL (≈ 27.3 µM)	>64 µg/mL	5%
CCCC[C@@H](NC(=O)[C@@H](CCCCN)NC(=O)[C@@H](Cc1cccc2ccccc12)NC(=O)[C@@H](CCCCN)NC(=O)CN(Cc1ccc(C)cc1)C(=O)CN(Cc1cccc2ccccc12)C(=O)CN(CCCCN)C(=O)CNCCCCN)C(N)=O [compound 13] (H-[Nlys][Nlys][N(1-naphthylmethyl)Gly][N(4-MeBn)Gly][dK][d1Nal][dK][dNle]-NH2; N-terminus assumed)	4 µg/mL (≈ 3.34 µM)	4 µg/mL (≈ 3.34 µM)	8 µg/mL (≈ 6.67 µM)	8 µg/mL (≈ 6.67 µM)	34%
